The results in this text go back to patent US12252524B2, “GIP/GLP1 co-agonist compounds” (Eli Lilly and Company, priority 2018, dated 2025).

Molecules are shown by their SMILES. Numbered stars: 1 amine (or outer) side, 2 acyl side, 3 side chain; on linkers, the order of the positions; unused ones are H or OH. Square brackets hold non-standard residues; d marks the D form. Side chains are listed from the residue outwards. Peptide text beside a SMILES is read from it. * marks the point of attachment. C18 diacid = O=C(O)CCCCCCCCCCCCCCCCC(=O)*; γGlu = O=C(O)[C@H](CCC(=O)[*:2])N[*:1]; αMeF = C[C@](N)(Cc1ccccc1)C(=O)O; AEEA = NCCOCCOCC(=O)O; Aib = CC(C)(N)C(=O)O

In test [1] the target is T1, gastric inhibitory peptide receptor (GIPR) (Homo sapiens, UniProt P48546).
T1 sequence (P48546 22-466): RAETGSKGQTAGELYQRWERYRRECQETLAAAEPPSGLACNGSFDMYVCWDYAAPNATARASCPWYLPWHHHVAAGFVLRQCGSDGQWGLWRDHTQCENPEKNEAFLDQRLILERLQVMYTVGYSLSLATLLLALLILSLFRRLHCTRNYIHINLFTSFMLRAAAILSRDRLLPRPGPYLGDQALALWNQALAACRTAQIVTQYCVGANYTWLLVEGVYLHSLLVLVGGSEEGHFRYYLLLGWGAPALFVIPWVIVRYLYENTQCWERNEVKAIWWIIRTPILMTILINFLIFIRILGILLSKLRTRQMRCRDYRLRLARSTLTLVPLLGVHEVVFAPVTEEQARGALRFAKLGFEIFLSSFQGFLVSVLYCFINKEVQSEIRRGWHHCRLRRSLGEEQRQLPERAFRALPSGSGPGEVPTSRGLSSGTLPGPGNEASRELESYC
The test can be described thus: cAMP pharmacological functional assay in presence of casein, hGIPR. In kind it is cell-based. Conditions: HEK293 cells expressing hGIPR, 0.1% Casein, geometric mean; read-out: hGIPR cAMP Rel EC50 nM (SEM, n).

Test [2] deals with human GLP-1R (Homo sapiens, UniProt P43220). Kind of test: [125I]-GLP-1 binding (SPA), human GLP-1 receptor. The note with it: read-out: hGLP1R Ki, (nM) (SEM, n). More on the design: expressed in transfected cells; crude membranes. A digest of the protocol: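 Assay buffer: HEPES 25 mM, pH 7.4, CaCl2 2.5 mM, MgCl2 1 mM, with EDTA-free protease inhibitors. Receptor came from crude cell membranes prepared by homogenization and centrifugation at 4° C. IC50s came from four-parameter fits (maximum, minimum, IC50, Hill slope) and were expressed as Ki geometric means with SEM.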

In test [3] the target is T2, human GIP receptor (Homo sapiens, UniProt P48546).
T2 construct: expressed in transfected cells; crude membranes
T2 sequence (P48546 22-466): T1 sequence (P48546 22-466)
The test can be described thus: [125I]-GIP binding (SPA), human GIP receptor. The note with it: read-out: hGIPR Ki, nM (SEM, n).

Test [4] concerns the target T3, human Gcg receptor (Homo sapiens, UniProt P47871).
T3 construct: expressed in transfected cells; crude membranes
Kind of test: [125I]-Glucagon binding (SPA), human Gcg receptor. The note with it: read-out: hGLcgR Ki, nM (SEM, n). A digest of the protocol:
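Crude membranes from cells expressing the receptor, prepared by hypotonic lysis in 50 mM Tris HCl pH 7.5 with protease inhibitors, homogenization and differential centrifugation, were used in a WGA-bead SPA. Binding buffer: 25 mM HEPES pH 7.4, 2.5 mM CaCl2, 1 mM MgCl2, bacitracin, Tween-20.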

The target in test [5] is human GLP-1 receptor (GLP-1R) (Homo sapiens, UniProt P43220). The test can be described thus: cAMP pharmacological functional assay in presence of casein, hGLP-1R. The class given is cell-based. The note with it: HEK293 cells expressing hGLP-1R, 0.1% Casein, geometric mean; read-out: hGLP1R cAMP Rel EC50 nM (SEM, n).
Sequence of human GLP-1 receptor (GLP-1R) (P43220 24-463): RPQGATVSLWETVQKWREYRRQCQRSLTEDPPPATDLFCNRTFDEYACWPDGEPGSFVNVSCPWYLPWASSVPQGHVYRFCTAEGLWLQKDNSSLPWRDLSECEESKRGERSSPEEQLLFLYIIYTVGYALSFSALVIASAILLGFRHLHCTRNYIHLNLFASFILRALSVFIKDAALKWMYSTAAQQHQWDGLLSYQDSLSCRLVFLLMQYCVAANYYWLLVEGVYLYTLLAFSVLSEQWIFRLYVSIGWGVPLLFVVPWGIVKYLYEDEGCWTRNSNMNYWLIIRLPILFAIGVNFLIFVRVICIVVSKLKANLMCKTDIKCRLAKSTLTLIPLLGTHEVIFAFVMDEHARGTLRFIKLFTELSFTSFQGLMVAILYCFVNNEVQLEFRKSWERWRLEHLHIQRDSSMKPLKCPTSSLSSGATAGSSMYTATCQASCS

T3 sequence (P47871 26-477): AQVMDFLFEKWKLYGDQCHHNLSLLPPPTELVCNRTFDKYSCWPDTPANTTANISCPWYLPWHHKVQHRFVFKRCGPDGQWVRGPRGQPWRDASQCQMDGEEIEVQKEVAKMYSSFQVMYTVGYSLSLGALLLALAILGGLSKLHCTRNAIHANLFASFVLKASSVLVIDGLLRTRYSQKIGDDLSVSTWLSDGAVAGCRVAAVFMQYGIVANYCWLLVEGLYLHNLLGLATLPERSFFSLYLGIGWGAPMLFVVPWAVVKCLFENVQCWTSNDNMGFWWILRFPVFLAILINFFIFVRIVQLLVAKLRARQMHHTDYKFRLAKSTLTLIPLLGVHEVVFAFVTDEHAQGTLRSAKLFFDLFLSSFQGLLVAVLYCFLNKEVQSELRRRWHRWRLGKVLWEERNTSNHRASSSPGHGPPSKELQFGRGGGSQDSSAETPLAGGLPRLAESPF
Sequence of human GLP-1R (P43220 24-463): as the sequence (P43220 24-463) above

For orientation: EC50 means the concentration at which the effect is half-maximal. In general, Ki refers to a dissociation constant, usually derived from enzyme kinetics or from competition with a known ligand. Take `CC[C@H](C)[C@H](NC(=O)[C@H](CC(C)C)NC(=O)[C@H](Cc1ccc(O)cc1)NC(=O)[C@H](CCC(=O)O)NC(=O)[C@@H](NC(=O)[C@H](Cc1ccccc1)NC(=O)[C@H](C)NC(=O)[C@H](Cc1c[nH]cn1)NC(=O)[C@H](CCC(N)=O)NC(=O)[C@H](C)NC(=O)[C@H](CCCCNC(=O)COCCOCCNC(=O)COCCOCCNC(=O)CC[C@H](NC(=O)CCCCCCCCCCCCCCCCC(=O)O)C(=O)O)NC(=O)[C@H](CCCCN)NC(=O)[C@H](CC(=O)O)NC(=O)[C@H](CC(C)C)NC(=O)[C@H](CC(C)C)NC(=O)[C@@H](NC(=O)[C@H](CO)NC(=O)[C@H](Cc1ccc(O)cc1)NC(=O)[C@H](CC(=O)O)NC(=O)[C@H](CO)NC(=O)[C@@H](NC(=O)[C@H](Cc1ccccc1)NC(=O)[C@@H](NC(=O)CNC(=O)[C@H](CCC(=O)O)NC(=O)C(C)(C)NC(=O)[C@@H](N)Cc1ccc(O)cc1)[C@@H](C)O)[C@@H](C)O)[C@@H](C)CC)[C@@H](C)CC)C(=O)N[C@@H](CCC(=O)O)C(=O)NCC(=O)NCC(N)=O` [Example 295] (H-Y[Aib]EGTFTSDYSILLDKK([AEEA-AEEA-γGlu-C18 diacid])AQHAFIEYLIEGG-NH2): the EC50 in test [1] is 0.281 nM; in test [5] it was 0.116 nM. The figures for the Ki in test [2], in test [3] and in test [4] were 4.12 nM, 0.181 nM and > 1000 nM, respectively.

As to `CC[C@H](C)[C@H](NC(=O)[C@H](CC(C)C)NC(=O)[C@H](Cc1ccc(O)cc1)NC(=O)[C@H](CCC(=O)O)NC(=O)[C@@H](NC(=O)[C@H](Cc1ccccc1)NC(=O)[C@H](C)NC(=O)[C@H](CCCCN)NC(=O)[C@H](CCC(N)=O)NC(=O)[C@H](C)NC(=O)[C@H](CCCCNC(=O)COCCOCCNC(=O)COCCOCCNC(=O)CC[C@H](NC(=O)CCCCCCCCCCCCCCCCC(=O)O)C(=O)O)NC(=O)[C@H](CCCCN)NC(=O)[C@H](CC(=O)O)NC(=O)[C@H](CC(C)C)NC(=O)[C@H](CC(C)C)NC(=O)[C@@H](NC(=O)[C@H](CO)NC(=O)[C@H](Cc1ccc(O)cc1)NC(=O)[C@H](CC(=O)O)NC(=O)[C@H](CO)NC(=O)[C@@H](NC(=O)[C@H](Cc1ccccc1)NC(=O)[C@@H](NC(=O)CNC(=O)[C@H](CCC(=O)O)NC(=O)C(C)(C)NC(=O)[C@@H](N)Cc1ccc(O)cc1)[C@@H](C)O)[C@@H](C)O)[C@@H](C)CC)[C@@H](C)CC)C(=O)N[C@@H](CCC(=O)O)C(=O)NCC(=O)NCC(=O)N1CCC[C@H]1C(=O)N[C@@H](CO)C(=O)N[C@@H](CO)C(=O)NCC(N)=O` [Example 296] (H-Y[Aib]EGTFTSDYSILLDKK([AEEA-AEEA-γGlu-C18 diacid])AQKAFIEYLIEGGPSSG-NH2), the EC50 in test [1] was 0.198 nM; in test [5], 0.0867 nM. Further, the Ki is 3.33 nM in test [2], 0.444 nM in test [3] and > 1000 nM in test [4].

Consider `CC[C@H](C)[C@H](NC(=O)[C@H](CC(C)C)NC(=O)[C@H](Cc1ccc(O)cc1)NC(=O)[C@H](CCC(=O)O)NC(=O)[C@@H](NC(=O)[C@H](Cc1ccccc1)NC(=O)[C@H](CCC(=O)O)NC(=O)C(C)(C)NC(=O)[C@H](CCC(N)=O)NC(=O)[C@H](C)NC(=O)[C@H](CCCCNC(=O)COCCOCCNC(=O)COCCOCCNC(=O)CC[C@H](NC(=O)CCCCCCCCCCCCCCCCC(=O)O)C(=O)O)NC(=O)[C@H](CCCCN)NC(=O)[C@H](CC(=O)O)NC(=O)[C@H](CC(C)C)NC(=O)[C@H](CC(C)C)NC(=O)[C@@H](NC(=O)[C@H](CO)NC(=O)[C@H](Cc1ccc(O)cc1)NC(=O)[C@H](CC(=O)O)NC(=O)[C@H](CO)NC(=O)[C@@H](NC(=O)[C@H](Cc1ccccc1)NC(=O)[C@@H](NC(=O)CNC(=O)[C@H](CCC(=O)O)NC(=O)C(C)(C)NC(=O)[C@@H](N)Cc1ccc(O)cc1)[C@@H](C)O)[C@@H](C)O)[C@@H](C)CC)[C@@H](C)CC)C(=O)N[C@@H](C)C(=O)NCC(=O)NCC(N)=O` [Example 297] (H-Y[Aib]EGTFTSDYSILLDKK([AEEA-AEEA-γGlu-C18 diacid])AQ[Aib]EFIEYLIAGG-NH2), for which the EC50 in test [1] is 0.0451 nM; in test [5], 0.111 nM. Also, the Ki in test [2] was 2.98 nM; in test [3], 0.0958 nM; in test [4], > 1240 nM.

`CC[C@H](C)[C@H](NC(=O)[C@H](CC(C)C)NC(=O)[C@H](Cc1ccc(O)cc1)NC(=O)[C@H](CCC(=O)O)NC(=O)[C@H](CC(C)C)NC(=O)[C@H](Cc1ccccc1)NC(=O)[C@H](C)NC(=O)C(C)(C)NC(=O)[C@H](CCC(N)=O)NC(=O)[C@H](C)NC(=O)[C@H](CCCCNC(=O)COCCOCCNC(=O)COCCOCCNC(=O)CC[C@H](NC(=O)CCCCCCCCCCCCCCCCC(=O)O)C(=O)O)NC(=O)[C@H](CCCCN)NC(=O)[C@H](CC(=O)O)NC(=O)[C@H](CC(C)C)NC(=O)[C@H](CC(C)C)NC(=O)[C@@H](NC(=O)[C@H](CO)NC(=O)[C@H](Cc1ccc(O)cc1)NC(=O)[C@H](CC(=O)O)NC(=O)[C@H](CO)NC(=O)[C@@H](NC(=O)[C@H](Cc1ccccc1)NC(=O)[C@@H](NC(=O)CNC(=O)[C@H](CCC(=O)O)NC(=O)C(C)(C)NC(=O)[C@@H](N)Cc1ccc(O)cc1)[C@@H](C)O)[C@@H](C)O)[C@@H](C)CC)C(=O)N[C@@H](CCC(=O)O)C(=O)NCC(=O)NCC(=O)N1CCC[C@H]1C(=O)N[C@@H](CO)C(=O)N[C@@H](CO)C(=O)NCC(N)=O` [Example 299] (H-Y[Aib]EGTFTSDYSILLDKK([AEEA-AEEA-γGlu-C18 diacid])AQ[Aib]AFLEYLIEGGPSSG-NH2): the EC50 in test [1] is 0.932 nM; in test [5] it was 2.54 nM. Further, the figures for the Ki in test [2], in test [3] and in test [4] were 54.3 nM, 0.734 nM and > 1040 nM, respectively.

As for `CC[C@H](C)[C@H](NC(=O)[C@H](CC(C)C)NC(=O)[C@H](Cc1ccc(O)cc1)NC(=O)[C@H](CCC(=O)O)NC(=O)[C@@H](NC(=O)[C@H](Cc1ccccc1)NC(=O)[C@H](C)NC(=O)C(C)(C)NC(=O)[C@H](CCC(N)=O)NC(=O)[C@H](C)NC(=O)[C@H](CCCCNC(=O)COCCOCCNC(=O)COCCOCCNC(=O)CC[C@H](NC(=O)CCCCCCCCCCCCCCCCC(=O)O)C(=O)O)NC(=O)[C@H](CCC(=O)O)NC(=O)[C@H](CC(=O)O)NC(=O)[C@H](CC(C)C)NC(=O)[C@H](CC(C)C)NC(=O)[C@@H](NC(=O)[C@H](CO)NC(=O)[C@H](Cc1ccc(O)cc1)NC(=O)[C@H](CC(=O)O)NC(=O)[C@H](CO)NC(=O)[C@@H](NC(=O)[C@](C)(Cc1ccccc1)NC(=O)[C@@H](NC(=O)CNC(=O)[C@H](CCC(=O)O)NC(=O)C(C)(C)NC(=O)[C@@H](N)Cc1ccc(O)cc1)[C@@H](C)O)[C@@H](C)O)[C@@H](C)CC)[C@@H](C)CC)C(=O)N[C@@H](CCC(=O)O)C(=O)NCC(=O)NCC(=O)N1CCC[C@H]1C(=O)N[C@@H](CO)C(=O)N[C@@H](CO)C(=O)NCC(N)=O` [Example 307] (H-Y[Aib]EGT[αMeF]TSDYSILLDEK([AEEA-AEEA-γGlu-C18 diacid])AQ[Aib]AFIEYLIEGGPSSG-NH2), the results for the EC50 in test [1] and in test [5] were 0.0285 nM and 0.0437 nM, respectively. Besides, the values for the Ki in test [2], in test [3] and in test [4] were 5.1 nM, 0.0773 nM and 117 nM, respectively.

Regarding `CC[C@H](C)[C@H](NC(=O)[C@H](CC(C)C)NC(=O)[C@H](Cc1ccc(O)cc1)NC(=O)[C@H](CCC(=O)O)NC(=O)[C@@H](NC(=O)[C@H](Cc1ccccc1)NC(=O)[C@H](CCC(=O)O)NC(=O)C(C)(C)NC(=O)[C@H](CCC(N)=O)NC(=O)[C@H](C)NC(=O)[C@H](CCCCNC(=O)COCCOCCNC(=O)COCCOCCNC(=O)CC[C@H](NC(=O)CCCCCCCCCCCCCCCCC(=O)O)C(=O)O)NC(=O)[C@H](CCCCN)NC(=O)[C@H](CC(=O)O)NC(=O)[C@H](CC(C)C)NC(=O)[C@H](CC(C)C)NC(=O)[C@@H](NC(=O)[C@H](CO)NC(=O)[C@H](Cc1ccc(O)cc1)NC(=O)[C@H](CC(=O)O)NC(=O)[C@H](CO)NC(=O)[C@@H](NC(=O)[C@](C)(Cc1ccccc1)NC(=O)[C@@H](NC(=O)CNC(=O)[C@H](CCC(=O)O)NC(=O)C(C)(C)NC(=O)[C@@H](N)Cc1ccc(O)cc1)[C@@H](C)O)[C@@H](C)O)[C@@H](C)CC)[C@@H](C)CC)C(=O)N[C@@H](CCC(=O)O)C(=O)NCC(=O)NCC(=O)N1CCC[C@H]1C(=O)N[C@@H](CO)C(=O)N[C@@H](CO)C(=O)NCC(N)=O` [Example 308] (H-Y[Aib]EGT[αMeF]TSDYSILLDKK([AEEA-AEEA-γGlu-C18 diacid])AQ[Aib]EFIEYLIEGGPSSG-NH2), the EC50 in test [1] worked out at 0.0262 nM; in test [5], 0.0392 nM. Moreover, the results for the Ki in test [2], in test [3] and in test [4] were 1.01 nM, 0.0288 nM and 94.2 nM, respectively.
